Measured values from patent US20090270442A1, “POLYMORPHS OF HYDROCHLORIDE SALT OF 5-(3-(ETHYLSULFONYL)PHENYL)-3,8-DIMETHYL-N-(1-METHYLPIPERIDIN-4-YL)-9H-PYRIDO[2,3-B]INDOLE-7-CARBOXAMIDE AND METHODS OF USE THEREFOR” (TAKEDA PHARMACEUTICAL COMPANY LIMITED, priority 2008, published 2009).
Converted amounts (≈) assume the structure as drawn. Like-named read-outs stand apart in the source and are kept apart here.

Experiments:
Assay type in all cases: physicochemical
[1] = 1 week slurry experiments in water, IPA, EtOAc, MeCN, EtOH and dioxane, form by XRPD (Table 34); settings: for Form (1 wk): RT, resulting form by XRPD; for form isolated after slurry in water / form after slurry in non-aqueous solvents: room temperature, one week; for form after slurry in non-aqueous solvents: solvents other than water
Description: Each vial was charged with approximately 25-30 mg of API and 1 mL of the corresponding solvent, followed by stirring at room temperature for one week. […] The obtained solids were isolated by filtration, dried under vacuum at room temperature and analyzed by XRPD.

[2] = Humidity chamber study at 0% and 95% RH, one week, XRPD and KF (Table 38); settings: ambient temperature
Description: The 0% RH chamber was prepared with drierite and the 95% RH chamber was made with a saturated solution of Na2HPO4.12H2O in DI water. The chambers were equilibrated for >1 week prior to introducing samples. Samples were placed in Teflon-lined caps for scintillation vials and allowed to equilibrate for one week then analyzed by XRPD and KF to determine form and water content.
FIG. 60 summarizes the conversion of the forms of Compound 1 observed from slurry and humidity chamber studies.

[3] = Drying study of Form A under vacuum at 40-85° C., XRPD and OVI (Table 39)
Description: Approximately 100 mg of sample was weighed into an individual 20-mL headspace vial and 5 mL of DMSO added. The vial was then sealed and gentle shaking/vortexing was used to ensure sample was entirely dissolved. Blank samples were prepared by transferring 5.0 mL of DMSO into a 20-mL headspace vial and then sealed. Standards were prepared using stock solutions in DMSO. Compound 1 (4.08 g, Form A) was dried under vacuum at 40° C. overnight. A small sample (˜200 mg) was taken for XRPD and OVI tests. The rest of the material was further dried under vacuum at 55° C. overnight. A second sample (˜200 mg) was taken for XRPD and OVI tests. The oven temperature was increased to 70° C. and the material was further dried under vacuum at 70° C. overnight. A third sample (˜200 mg) was taken for XRPD and OVI tests. The oven temperature was then increased to 85° C. and the material was further dried under vacuum over weekend. Analysis by XRPD and OVI was completed as shown in Table 39 along with experimental details.

[4] = Solubility study of Form A in DI water and 20 mM phosphate buffer (pH 3.2) (Table 37); settings: for pH (final, 1 week): supernatant after 1 week slurry; for solubility at 1 day: read-out: Solubility mg/mL (1 day); for solubility at 1 week: read-out: Solubility mg/mL (1 week)
Description: The solubility measurement of Compound 1 Form A was performed in DI water (Milli-Q) and in 20 mM phosphate buffer (pH 3.2), see Table 37. Each vial was charged with 50-55 mg of Compound 1 and 1 mL of the corresponding solvent.
Both slurries were stirred at room temperature for approximately 19 hours. An aliquot (0.2 mL) was taken from each sample for the solubility determination and XRPD test. […] Both slurries were allowed to stir for an additional 6 days at room temperature. The pH of the supernatant liquid and solubility were determined following the 1 week slurry.

[5] = Karl Fischer analysis (KF), water content; settings: for water content by KF: theoretical for a monohydrate 3.2%
Description: Water content was determined by adding solid sample to the instrument with HYDRANAL-Coulomat AD. Micrograms of water were determined by coulometric titration.

[6] = Moisture-sorption analysis (adsorption/desorption, then drying 1 h at 80° C. and XRPD) (Table 40); settings: for XRPD pattern after drying: dried for one hour at 80° C.
Description: Moisture-sorption experiments were carried out on three forms by first drying the sample at 0% RH and 25° C. until an equilibrium weight was reached or for a maximum of four hours. The sample was then subjected to an isothermal (25° C.) adsorption scan from 10 to 90% RH in steps of 10%. The sample was allowed to equilibrate to an asymptotic weight at each point for a maximum of four hours. Following adsorption, a desorption scan from […] to 0% RH (at 25° C.) was run in steps of −10%, again allowing a maximum of four hours for equilibration to an asymptotic weight. The sample was then dried for one hour at 80° C. and the resulting solid analyzed by XRPD.

[7] = MeCN/water slurry experiments of Forms A and C at ambient temperature (Table 35); settings: MeCN/water at different ratios
Description: Slurry experiments of Compound 1, Forms A and C, were conducted in mixtures of MeCN and water. Each vial was charged with approximately 40 mg of Compound 1 (pure Form A, pure Form C, or 50:50 mixtures) and 2 mL of MeCN/water mixture in a 1:9, 1:1, and 9:1 ratio. […] All samples were stirred at room temperature for approximately 24 hours. An aliquot (1 mL) of the suspension was taken from the slurries (samples #1, 3, 4, 6, 7 and 9) for determination of form by XRPD. All aliquots were filtered and dried in vacuo at 30 mm Hg and ambient temperature. All samples were stirred at ambient temperature for an additional six days, filtered, dried, and again the solid form and filterability were determined.

[8] = Solvent screen: solubility of Compound 1 in various solvents (Table 16)
Description: Compound 1 as prepared by the method described in Example I may be used as the starting material for preparation of other polymorphic forms. The methods for testing the solubility of Compound 1 are described in Example 3, and the solubilities of Compound 1 in various solvents are summarized in Table 16. […] A solubility study of Compound 1 in various solvents was executed to select appropriate solvents for the further crystallizations. The material was placed in vials and the solvent was added in 250 μL portions. Solvents were picked based on differences in polarity and functionality and on their classification according to the International Conference on Harmonization (ICH), with preferences given to class II and class III solvents. After each addition of solvent, the vials were visually inspected for residual solids, and further heating to 55° C. to ensure dissolution.

[9] = 20 mM phosphate buffer slurry, room temperature
[10] = DI water slurry, room temperature

CCS(=O)(=O)c1cccc(-c2cc(C(=O)NC3CCN(C)CC3)c(C)c3[nH]c4ncc(C)cc4c23)c1 [Form N]
Form (1 wk) ([1]; 1 week slurry in Dioxane (1.0 mL)): C + P | Form (1 wk) ([1]; 1 week slurry in EtOAc (1.0 mL)): C + P | Form (1 wk) ([1]; 1 week slurry in IPA (1.0 mL)): C + P | form isolated after slurry in water [1]: Form A

CCS(=O)(=O)c1cccc(-c2cc(C(=O)NC3CCN(C)CC3)c(C)c3[nH]c4ncc(C)cc4c23)c1 [Form A]
change in form upon humidity exposure ([2]; 0 and 95% RH for one week): did not show a change in form | Residual Amt of MeCN by OVI (ppm) ([3]; dried under vacuum at 40° C., time at temperature 16): 1353 ppm | Residual Amt of MeCN by OVI (ppm) ([3]; dried under vacuum at 55° C., time at temperature 24 (total 40)): 1303 ppm | Residual Amt of MeCN by OVI (ppm) ([3]; dried under vacuum at 70° C., time at temperature 24 (total 64)): 1113 ppm | Residual Amt of MeCN by OVI (ppm) ([3]; dried under vacuum at 85° C., time at temperature 72 (total 136)): 670 ppm | XRPD (1 week) [4, 9]: Form A | XRPD (1 day) [4, 9]: Form A | pH (final, 1 week) ([4]; 20 mM phosphate buffer): 3.3 | solubility ([4]; DI water and 20 mM phosphate buffer (pH 3.2), thermodynamic from solid, DI water and phosphate buffer slurries, after equilibration overnight and 1 week, room temperature): 3000 to 4000 µg/mL (≈ 5.94 to 7.93 mM) | XRPD (1 week) [4, 10]: Form A | XRPD (1 day) [4, 10]: Form A | pH (final, 1 week) ([4]; DI water): 5.0 | solubility at 1 day ([4]; aqueous buffer, thermodynamic from solid, 20 mM phosphate buffer, initial pH 3.2, room temperature): 3.3 mg/mL (≈ 6.54 mM) | solubility at 1 week ([4]; pH 3.2, aqueous buffer, thermodynamic from solid, 20 mM phosphate buffer, room temperature): 4.1 mg/mL (≈ 8.12 mM) | solubility at 1 week ([4]; pH 8.1, thermodynamic from solid, DI water, room temperature): 4.3 mg/mL (≈ 8.52 mM) | solubility at 1 day ([4]; thermodynamic from solid, DI water, initial pH 8.1, room temperature): 3.1 mg/mL (≈ 6.14 mM) | water content by KF after heating ([5]; another sample, after heating): 3.0% | water content by KF before heating ([5]; another sample, before heating): 3.1% | water content by KF [5]: 3.7% | stability of the hydrate over relative humidity (moisture sorption curve) ([6]; 25° C.): stable from 5 to 90% RH | maximum moisture uptake ([6]; at 90% RH, 25° C.): 4.2 wt % | XRPD pattern after drying [6]: consistent with Form A

CCS(=O)(=O)c1cccc(-c2cc(C(=O)NC3CCN(C)CC3)c(C)c3[nH]c4ncc(C)cc4c23)c1 [Form C]
form after humidity exposure ([2]; 95% RH for one week): converted to Form A | form after acetonitrile/water slurries [7]: converted to the monohydrate Form A | form after slurry in non-aqueous solvents [1]: stable anhydrate form in non-aqueous environments | form isolated after slurry in water [1]: converted to the monohydrate Form A | water content by KF [5]: 1.4% | hygroscopicity (moisture sorption curve) ([6]; 25° C.): slightly hygroscopic | hysteresis upon desorption ([6]; 25° C.): not observed | maximum water uptake ([6]; at 90% RH, 25° C.): 1.9% | XRPD pattern after drying [6]: consistent to the starting form

CCS(=O)(=O)c1cccc(-c2cc(C(=O)NC3CCN(C)CC3)c(C)c3[nH]c4ncc(C)cc4c23)c1.Cl [Compound 1, 5-(3-(ethylsulfonyl)phenyl)-3,8-dimethyl-N-(1-methylpiperidin-4-yl)-9H-pyrido[2,3-b]indole-7-carboxamide hydrochloride]
solubility ([8]; 55 °C, thermodynamic from solid, solvent water, Temp 55, Soluble No, read-out: Conc.): ≤ 600 µg/mL | solubility ([8]; in acetone, MeCN, MTBe, EtOAc, IPAc, IPA, THF, 2-Me-THF, DCM, MEK, cyclohexane, heptane and water): Poor solubility | solubility ([8]; in dioxane, MeOH, DMF, DMA, NMP, AcOH and EtOH): Good solubility | Soluble ([8]; solvent 2-Me-THF, 0.4 mg/mL, Temp 55): No | Conc. ([8]; solvent 2-Me-THF, Temp 55, Soluble No): 400 µg/mL | Soluble ([8]; solvent AcOH, >9.2 mg/mL, Temp RT): Yes | Conc. ([8]; solvent AcOH, Temp RT, Soluble Yes): >9200 µg/mL | Soluble ([8]; solvent Acetone, 0.3 mg/mL, Temp 55): No | Conc. ([8]; solvent Acetone, Temp 55, Soluble No): 300 µg/mL | Soluble ([8]; solvent Chloroform, >8.4 mg/mL, Temp RT): Yes | Conc. ([8]; solvent Chloroform, Temp RT, Soluble Yes): >8400 µg/mL | Soluble ([8]; solvent DCM, 0.8 mg/mL, Temp RT): No | Conc. ([8]; solvent DCM, Temp RT, Soluble No): 800 µg/mL | Soluble ([8]; solvent DMA, >9.2 mg/mL, Temp RT): Yes | Conc. ([8]; solvent DMA, Temp RT, Soluble Yes): >9200 µg/mL | Soluble ([8]; solvent DMF, >10.4 mg/mL, Temp RT): Yes | Conc. ([8]; solvent DMF, Temp RT, Soluble Yes): >10400 µg/mL | Soluble ([8]; solvent Dioxane, 0.7 mg/mL, Temp 55): Yes | Conc. ([8]; solvent Dioxane, Temp 55, Soluble Yes): 700 µg/mL | Soluble ([8]; solvent EtOAc, 0.4 mg/mL, Temp 55): No | Conc. ([8]; solvent EtOAc, Temp 55, Soluble No): 400 µg/mL | Soluble ([8]; solvent EtOH, 1.2 mg/mL, Temp 55): Yes | Conc. ([8]; solvent EtOH, Temp 55, Soluble Yes): 1200 µg/mL | Soluble ([8]; solvent Heptane, 0.4 mg/mL, Temp 55): No | Conc. ([8]; solvent Heptane, Temp 55, Soluble No): 400 µg/mL | Soluble ([8]; solvent IPA, 0.5 mg/mL, Temp 55): No | Conc. ([8]; solvent IPA, Temp 55, Soluble No): 500 µg/mL | Soluble ([8]; solvent IPAC, 0.5 mg/mL, Temp 55): No | Conc. ([8]; solvent IPAC, Temp 55, Soluble No): 500 µg/mL | Soluble ([8]; solvent MEK, 0.6 mg/mL, Temp 55): No | Conc. ([8]; solvent MEK, Temp 55, Soluble No): 600 µg/mL | Soluble ([8]; solvent MTBE, 0.3 mg/mL, Temp 55): No | Conc. ([8]; solvent MTBE, Temp 55, Soluble No): 300 µg/mL | Soluble ([8]; solvent MeCN, 0.5 mg/mL, Temp 55): No | Conc. ([8]; solvent MeCN, Temp 55, Soluble No): 500 µg/mL | Soluble ([8]; solvent MeOH, >10.0 mg/mL, Temp RT): Yes | Conc. ([8]; solvent MeOH, Temp RT, Soluble Yes): >10000 µg/mL | Soluble ([8]; solvent NMP, >10.4 mg/mL, Temp RT): Yes | Conc. ([8]; solvent NMP, Temp RT, Soluble Yes): >10400 µg/mL | Soluble ([8]; solvent THF, 0.4 mg/mL, Temp 55): No | Conc. ([8]; solvent THF, Temp 55, Soluble No): 400 µg/mL | Soluble ([8]; solvent Toluene, 0.4 mg/mL, Temp 55): No | Conc. ([8]; solvent Toluene, Temp 55, Soluble No): 400 µg/mL | Soluble ([8]; solvent c-Hexane, 0.5 mg/mL, Temp 55): No | Conc. ([8]; solvent c-Hexane, Temp 55, Soluble No): 500 µg/mL | Soluble ([8]; solvent water, 0.6 mg/mL, Temp 55): No

CCS(=O)(=O)c1cccc(-c2cc(C(=O)NC3CCN(C)CC3)c(C)c3[nH]c4ncc(C)cc4c23)c1 [Form L]
form after slurry in non-aqueous solvents [1]: to the anhydrate Form C | form isolated after slurry in water [1]: convert to the monohydrate Form A | water content by KF [5]: 2.9% | hygroscopicity (moisture sorption curve) ([6]; 25° C.): moderately hygroscopic | hysteresis upon desorption ([6]; 25° C.): not observed | maximum water uptake ([6]; at 90% RH, 25° C.): 3.9% | XRPD pattern after drying [6]: same pattern before and after drying
